In US11401516B2, “Channel modulators” (AUCKLAND UNISERVICES LIMITED, priority 2014, dated 2022):
Each block holds one molecule with its values, some of them ahead of it. Where a SMILES comes first, the peptide text is derived from it. Where no end group is shown, it is not given here. didodecyl = two dodecyl groups (C12-C12) conjugated at the N terminus

Assays:
hCMVEC cells = experiment: Scrape load assay (Lucifer yellow dye transfer); assay type: cell-based, human; conditions: broad spectrum gap-junction blocker, concentration not given
Procedure: In the below Examples 2, 4, 5, 8 and 10 using human cerebral microvascular endothelial cells (hCMVEC), cells were prepared by growing them in collagen coated (30 μg/mL) T25 or T75 flasks maintained in Medium M199 supplemented with 10% FCS, 1 μg/mL hydrocortisone, 3 ng/mL hFGF, 1 ng/mL hEGF, 10 μg/mL heparin, 1× penicillin streptomycin neomycin (Life Technologies), and cAMP (100 μL 100% cAMP to 100 mL media). Cells were maintained at 37° C. with 95% O2 and 5% CO2.
In this Example, human cerebral microvascular endothelial cells (hCMVEC) were grown in collagen coated (1 μg/mL) T25 flasks maintained in Medium M199 supplemented with 10% FBS, 1 μg/mL hydrocortisone, 3 ng/mL hFGF, 1 ng/mL hEGF, 10 μg/mL heparin and cAMP (100 μL 100% cAMP to 100 mL media) in a humidified atmosphere at 37° C. with 5% CO2. One day prior to experimentation, these cells were trypsinized and plated at a density of 4×10^5 cells/well in a collagen-coated 12 well-plate in the same medium. For treatments, cells were cultured in the presence of peptide5, a control gap junction channel blocker (carbenoxolone), or tonabersat for the respective time intervals prior to scrape dye loading. The blockers were also present in the respective scrape loading solutions.
For scrape loading the hCMVEC cells were washed three times with phosphate buffered saline (PBS) (without divalent cations). A solution of PBS+0.05% lucifer yellow was added to cells. The cells then received a scrape to the monolayer using a size 10 carbon steel surgical blade and incubated in the dark at 37° C. with 5% CO2 for 5 minutes. The cells were washed with PBS four times and then 1 mL of PBS added for fluorescent microscopy.
The live cells were then imaged on a Nikon TE2000E fluorescent microscope whilst maintained in a chamber heated to 37° C. with 5% CO2. Three images pairs were obtained at 10× magnification for each of a phase contrast image to view total cells and a fluorescent image to visualize Lucifer yellow using 488 nm excitation and a GFP filter block. Gap junctional communication was determined by counting the number of Lucifer yellow positive cells and presented as a percentage to the positive cells of the control group. Data was graphed as mean+standard error of the mean using Prism v5.02 software. Significance was determined through students two-tailed, unpaired, T Tests. *=p<0.05, **=[…], ***=p<0.001.
An in vitro scrape-loading assay with extracellular Lucifer Yellow (LY), a fluorescent dye that is transferred only through coupled GJs was performed to test whether Tonabersat inhibits GJ communication (M. H. el-Fouly, et al., Experimental cell research 168, 422 (February, 1987)). A single scrape wound was made to a confluent monolayer of hCMVEC cells to enable LY dye to gain access to the cytoplasm of cells at the edge of the wounded region and allow the dye to transfer to adjacent cells through GJs.

Connexin43 hemichannel = biological target: T1, Connexin43 hemichannel (Homo sapiens, UniProt P17302); experiment: Whole-cell voltage clamp, Connexin43 transfected HeLa cells; assay type: cell-based; conditions: voltage steps; peptide5 100 μM; carbenoxolone and LaCl3 concentration not stated
T1 construct: expressed in transfected cells; host or cells: HeLa (connexin-deficient parent), Cx43IRESeGFP, puromycin selection
T1 sequence (P17302 2-382 limits assumed): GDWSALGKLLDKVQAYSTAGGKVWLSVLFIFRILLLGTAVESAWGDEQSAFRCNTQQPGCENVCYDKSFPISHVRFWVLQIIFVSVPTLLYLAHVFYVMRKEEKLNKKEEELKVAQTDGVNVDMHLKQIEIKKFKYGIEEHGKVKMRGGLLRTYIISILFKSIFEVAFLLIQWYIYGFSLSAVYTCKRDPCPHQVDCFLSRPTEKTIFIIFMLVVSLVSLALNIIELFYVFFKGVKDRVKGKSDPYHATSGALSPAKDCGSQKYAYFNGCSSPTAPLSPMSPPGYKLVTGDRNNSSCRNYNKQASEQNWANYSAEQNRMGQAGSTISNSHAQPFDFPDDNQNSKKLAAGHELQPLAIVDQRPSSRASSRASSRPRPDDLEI
Procedure: Whole-cell voltage clamp studies were conducted on connexin deficient HeLa cells, Connexin43 transfected HeLa cells and isolated human cerebral microvascular endothelial cells (hCMVEC).
HeLa cells were seeded at 0.045×10^6 cells/mL on 18 mm rat collagen I coated coverslips 16-24 hours before each experiment. Cx43IRESeGFP HeLa cells were cultured overnight in DMEM supplemented with 10% FCS and 1 μg/mL Puromycin at 37° C. at 95% O2 and 5% CO2. Control Cx-deficient cells were maintained in DMEM supplmented with 10% FCS. Coverslips were transferred to a chamber continuously perfused with modified Krebs-Ringer solution containing (in mM): 140 NaCl, 5.4 KCl, 1 MgCl2, 10 mM Hepes and pH adjusted to 7.4 at room temperature. The internal pipette solution contained (in mM): 130 KCl, 10 sodium aspartate, 0.26 CaCl2, 2 EGTA, 5 tetraethylammonium-Cl, 1 MgCl, 3 MgATP, and 5 Hepes at pH 7.2; and was kept on ice. The solutions are described in Contreras J E, et al., Cell Communication and Adhesion (2003), 10:245-249. To resolve single currents in whole-cell configuration, cells with low capacitance (<10 pF) and high resistance pipettes ([…]) with a seal resistance of (>5 GOhm) were selected for recording and analysis.

[1] = test system: Cx43 hemichannel and pannexin channel mediated ATP release from hCMVEC cells; experiment: In vitro ischaemia injury ATP assay; assay type: cell-based, human
Procedure: (§1) Using an in vitro ischemia injury model, the Cx43 hemichannel and pannexin channel mediated ATP release was differentiated using the connexin hemichannel blocking mimetic peptide5 at 100 μM concentration (S. J. O'Carroll, et al., Cell communication & adhesion 15, 27 (May, 2008)) and 1 mM Probenecid (W. R. Silverman et al., The Journal of biological chemistry 284, 18143 (Jul. 3, 2009)).
Human cerebral microvascular endothelial cells (hCMVEC) were trypsinised (TrypLE Express, Life technologies) and plated at a density of 0.025×10^6 cells per well in a collagen-coated 12-well plate (1 μg/cm2) a day prior to the experiment. Cells were incubated in culture medium overnight. Hypoxic, acidic, ion-shifted Ringer injury solution that mimics ionic concentrations and acid-base shifts of the interstitial space in hypoxic-ischemic brains (A. Bondarenko, et al., Glia 34, 143 (Apr. 15, 2001)) was used to trigger hemichannel opening. The injury solution (in mM): 38 NaCl, 13 NaHCO3, 3 Na-gluconate, 65 K-gluconate, 38 NMDG-Cl, 1 NaH2PO4, 1.5 MgCl2, was bubbled in N2 gas (>99% purity, 20 L/min) for 5 minutes and pH adjusted to 6.6 using 5 M HCl. Control solution that mimics physiological conditions contained (in mM): 124 NaCl, 3 KCl, 26 NaHCO3, […], 1 NaH2PO4, 1.3 CaCl2, 1.5 MgCl2, and 10 Glucose, and pH 7.4 was adjusted using 5 M HCl (Bondarenko, 2001). […] Following a 2-hour injury the solutions were immediately placed on ice. In the injury and reperfusion model, hCMVEC cells were incubated in 500 μL of normal solution or injury solution for 2 hours at 37° C. in 95% O2 and 5% CO2. Following 2 hour injury, the solutions were discarded and replaced with 500 μL of the normal solution, or Tonabersat (10 μM) dissolved in normal solution, and were incubated for 2 hours at 37° C. in 95% O2 and 5% CO2. These solutions were also then immediately placed on ice. Peptide5 (100 μM)+/−Probenecid (1 mM) were used as controls for both injury and injury-reperfusion models. ATP concentration in the samples was determined using a Luciferin/luciferase bioluminescence reaction (ATP Determination Kit, Molecular Probes) and detected using a luminescence plate reader (VICTOR X, Perkin Elmer #2030-0010). Standard curves were generated in each experiment from an ATP standard (500 nM) to quantify the concentration of ATP in the test samples. The data is presented as mean±standard error relative to the injury or injury-reperfusion control. Statistically significant differences between samples were identified using one-way analysis of variance and Tukey's multiple comparisons test.

[2] = bovine
[3] = test system: Cx43 hemichannel and pannexin channel mediated ATP release from hCMVEC cells; experiment: In vitro ischaemia injury-reperfusion ATP assay; assay type: cell-based, human; conditions: 2 h, 1000 µM
Procedure: as §1
Human cerebral microvascular endothelial cells (hCMVEC) were trypsinised (TrypLE Express, Life technologies) and plated at a density of 0.025×10^6 cells per well in a collagen-coated 12-well plate (1 μg/cm2) a day prior to the experiment. Cells were incubated in culture medium overnight. Hypoxic, acidic, ion-shifted Ringer injury solution that mimics ionic concentrations and acid-base shifts of the interstitial space in hypoxic-ischemic brains (A. Bondarenko, et al., Glia 34, 143 (Apr. 15, 2001)) was used to trigger hemichannel opening. […] ATP concentration in the samples was determined using a Luciferin/luciferase bioluminescence reaction (ATP Determination Kit, Molecular Probes) and detected using a luminescence plate reader (VICTOR X, Perkin Elmer #2030-0010). Standard curves were generated in each experiment from an ATP standard (500 nM) to quantify the concentration of ATP in the test samples. […]

Retinal ganglion cell = experiment: Retinal ischemia reperfusion (glaucoma model), RGC count; assay type: in vivo, Wistar rats; conditions: after 28 days
Procedure: (§2) The effects of chemical modification and particulate formulation delivery were measured on rats modelled for glaucoma with a retinal ischemia reperfusion. First, a retinal ischemia reperfusion model was created. A total of 121 adult male Wistar rats weighing 200 to 300 g were used for the study. Retinal ischemia was modeled in the left eye (120 mmHg for 60 min), with the right eye as the control, and then the connexin 43 modulator peptide formulations were injected intravitreally immediately as solutions in 1×PBS delivery agent. The connexin 43 modulator peptide used was SEQ-Pept5, in both its unmodified and chemically modified (didodecyl) forms. The formulations used were neat (just diluted in 1×PBS delivery media) solutions of nanoparticles or microparticles. After reperfusion, Evan's blue dye was injected intraperitoneally 4 hr after reperfusion to visualize vessel leak using confocal microscopy. Retinal whole mounts were collected at 8 hr and 28 days for Cxn43 quantitification, and 28 and 90 days for gangliol cell (RGC) density quantification.

retinal vessel leak = experiment: Retinal ischemia reperfusion (glaucoma model), vessel leak with Evan's blue dye; assay type: in vivo, Wistar rats; conditions: 4 hr post-ischemia, intravitreal
Procedure: as §2

Cxn43 = Cxn43 (Rattus norvegicus, UniProt P08050); experiment: Retinal ischemia reperfusion (glaucoma model), Cxn43 quantification; assay type: in vivo, Wistar rats; conditions: 8 hr after ischemia
Cxn43, sequence (P08050 2-382 limits assumed): as the sequence (P17302 2-382 limits assumed) above, with D123E, I163V, K242R, S250T, A252P, A256S, Q262P, S343A, L346V counted along it
Procedure: as §2

Molecule: CC1(C)[C@@H](OC(=O)CCC(=O)O)CC[C@]2(C)[C@H]3C(=O)C=C4[C@@H]5C[C@@](C)(C(=O)O)CC[C@]5(C)CC[C@@]4(C)[C@]3(C)CC[C@@H]12 [Carbenoxolone]
LY positive cells compared to control (hCMVEC cells): 77.8±7.4%
Connexin43 hemichannel activity (Connexin43 hemichannel): virtually complete hemichannel block
level of the inhibition of ATP release ([1]; ischemic injury): 65%

half-life [2]: ~2 h
Molecule: CC(C)C[C@H](NC(=O)[C@H](Cc1ccccc1)NC(=O)[C@H](CS)NC(=O)[C@H](CC(=O)O)NC(=O)[C@@H](N)C(C)C)C(=O)N[C@@H](CO)C(=O)N[C@@H](CCCNC(=N)N)C(=O)N1CCC[C@H]1C(=O)N[C@H](C(=O)N[C@@H](CCC(=O)O)C(=O)N[C@@H](CCCCN)C(=O)N[C@H](C(=O)O)[C@@H](C)O)[C@@H](C)O [Peptide5] (H-VDCFLSRPTEKT-OH)

Molecule: CCCN(CCC)S(=O)(=O)c1ccc(C(=O)O)cc1 [Probenecid, p-[Dipropylsulfamoyl]benzoic acid]
ATP release, percentage of the injury-reperfusion (IR) control [3]: 99.3±4.4%
total extracellular ATP release, percentage of the injury control ([1]; 2-hour injury, 100 μM Peptide5, 1 mM Probenecid, alone or combined): 83.1±4.5%

Molecule: C12-C12 Cxn43 MP: connexin 43 modulator peptide conjugated at the N terminus to two dodecyl groups, SEQ ID NO: 237 (didodecyl-VDCFLSRPTEKT)
RGC survival (Retinal ganglion cell): over 93%
vessel leak (retinal vessel leak): reduction in vessel leak
Cxn43 spot counts (Cxn43): reduced moreso
